Data taken from patent publication US20070191356A1, “Pyridobenzoxazine derivative” (priority 2004, published 2007).
Values after ≈ are worked out from the molar mass of the structure shown. Where two headings read alike, the source gives them in different places.

Tests used:
[1] = test system: E. coli, NIHJ; assay: Antimicrobial activity MIC, standard method of Japanese Society of Chemotherapy; format: cell-based
Method: (§1) The antimicrobial activity of the compounds of the present invention is measured in accordance with the standard method designated by Japanese Society of Chemotherapy and MIC (microgram/ml) values are shown as its results in Table 1.

[2] = test system: K. pneumoniae, Type I; assay: as above; format: cell-based
Method: as §1

[3] = test system: Pr. vulgalis, 08601; assay: as above; format: cell-based
Method: as §1

[4] = test system: Ps. aeruginosa, 32104; assay: as above; format: cell-based
Method: as §1

[5] = test system: Ps. aeruginosa, 32121; assay: as above; format: cell-based
Method: as §1

[6] = test system: S. aureus, 209P; assay: as above; format: cell-based
Method: as §1

[7] = test system: S. aureus, 870307; assay: as above; format: cell-based
Method: as §1

[8] = test system: S. epidermidis, 56500; assay: as above; format: cell-based
Method: as §1

[9] = test system: S. flexneri, 2A 5503; assay: as above; format: cell-based
Method: as §1

[10] = test system: S. maltophilia, IID-1275; assay: as above; format: cell-based
Method: as §1

[11] = test system: Ser. marcescens, 10100; assay: as above; format: cell-based
Method: as §1

[12] = test system: Str. faecalis, ATCC-19433; assay: as above; format: cell-based
Method: as §1

[13] = test system: Str. pneumoniae, J24; assay: as above; format: cell-based
Method: as §1

[14] = test system: Str. pyogenes, G-36; assay: as above; format: cell-based
Method: as §1

[15] = test system: Slc:ddY male mice; assay: Single intravenous dosing toxicity test in mice; format: in vivo; conditions: single intravenous dose 150 mg/kg, six-week-old Slc:ddY male mice
Method: The single intravenous dosing toxicity test in mice using the invention compound was carried out in the following manner. The compound was dissolved in and diluted with 0.1 mol/l NaOH/physiological saline. After the diluted solution was sterilized by filtration through a 0.22 μm filter of Millex GS, the resulting sterilized solution was intravenously administered to six-week-old Slc:ddY male mice at an administration rate of 10 ml/kg or 0.2 ml/min as a single dose. Similar to Test 1, the compound obtained in Example 2 of Patent Document 2 was employed as a comparative compound.

[16] = Klebsiella pneumoniae, read-out: MIC
[17] = Pseudomonas aeruginosa, 32104, Ps. aeruginosa, read-out: MIC
[18] = Pseudomonas aeruginosa, 32121, Ps. aeruginosa, read-out: MIC
[19] = Staphylococcus aureus, read-out: MIC
[20] = Staphylococcus epidermidis, 56500, S. epidermidis, read-out: MIC
[21] = Stenotrophomonas maltophilia, IID1275, S. maltophilia, read-out: MIC
[22] = Serratia marcescens, 10100, Ser. marcescens, read-out: MIC
[23] = Enterococcus faecalis, ATCC19433, Str. faecalis, read-out: MIC
[24] = Streptococcus pneumoniae, J24, Str. pneumoniae, read-out: MIC
[25] = Escherichia coli, read-out: MIC
[26] = Staphylococcus aureus, 870307, S. aureus, read-out: MIC
[27] = Shigella flexneri, 2A5503, S. flexneri, read-out: MIC
[28] = Streptococcus pyogenes, G36, Str. pyogenes, read-out: MIC
[29] = Ps. aeruginosa, listed as Ex. 3

Row | SMILES | MIC [2, 16] | MIC [4, 17] | MIC [5, 18] | MIC [6, 19] | MIC [8, 20] | MIC [10, 21] | MIC [11, 22] | MIC [12, 23] | MIC [13, 24] | melting point | MIC [1, 25] | MIC ([3]; read-out: MIC) | MIC [7, 26] | MIC [9, 27] | MIC [14, 28] | other results
1 | C[C@H]1COc2c(N3CC(N)C(C(F)F)C3)c(F)cc3c(=O)c(C(=O)O)cn1c23 (single isomer, unassigned) [Example 2] | 0.05 µg/mL (≈ 0.126 µM) | 0.2 µg/mL (≈ 0.503 µM) | 0.05 µg/mL (≈ 0.126 µM) | 0.025 µg/mL (≈ 0.0629 µM) | 0.1 µg/mL (≈ 0.252 µM) | 0.2 µg/mL (≈ 0.503 µM) | 0.05 µg/mL (≈ 0.126 µM) | 0.39 µg/mL (≈ 0.981 µM) | 0.2 µg/mL (≈ 0.503 µM) | 247 to 252 °C | – | – | – | – | – | MIC ([1]; listed as Ex. 2): ≦0.003 microgram/ml; MIC ([3]; listed as Ex. 2): 0.012 microgram/ml; MIC ([7]; S. aureus, listed as Ex. 2): 1.56 microgram/ml; MIC ([9]; S. flexneri, listed as Ex. 2): 0.012 microgram/ml; MIC ([14]; Str. pyogenes, listed as Ex. 2): 0.2 microgram/ml
2 | COc1c(N2C[C@H](CF)[C@H](N)C2)c(F)cc2c(=O)c(C(=O)O)cn(C3CC3)c12 [Comparative Compound, reference compound] | 0.025 µg/mL (≈ 0.0636 µM) | 0.2 µg/mL (≈ 0.508 µM) | 0.05 µg/mL (≈ 0.127 µM) | 0.012 µg/mL (≈ 0.0305 µM) | 0.05 µg/mL (≈ 0.127 µM) | 0.05 µg/mL (≈ 0.127 µM) | 0.05 µg/mL (≈ 0.127 µM) | 0.1 µg/mL (≈ 0.254 µM) | 0.025 µg/mL (≈ 0.0636 µM) | – | ≤ 0.003 µg/mL | 0.006 µg/mL (≈ 0.0153 µM) | 0.39 µg/mL (≈ 0.991 µM) | 0.006 µg/mL (≈ 0.0153 µM) | 0.1 µg/mL (≈ 0.254 µM) | Number of deaths/total number ([15]; 150 mg/kg): 3/5; Number of deaths/total number ([15]; listed as comparative compound, 150 mg/kg): three of five mice died
3 | O=C(O)c1cn(C2CC2)c2cc(N3CCNCC3)c(F)cc2c1=O [CPFX, ciprofloxacin, reference compound] | 0.025 µg/mL (≈ 0.0754 µM) | 0.005 µg/mL (≈ 0.0151 µM) | 0.025 µg/mL (≈ 0.0754 µM) | 0.1 µg/mL (≈ 0.302 µM) | 0.2 µg/mL (≈ 0.604 µM) | 0.78 µg/mL (≈ 2.35 µM) | 0.025 µg/mL (≈ 0.0754 µM) | 0.78 µg/mL (≈ 2.35 µM) | 0.1 µg/mL (≈ 0.302 µM) | – | ≤ 0.003 µg/mL | ≤ 0.003 µg/mL | 3.13 µg/mL (≈ 9.45 µM) | 0.006 µg/mL (≈ 0.0181 µM) | 1.56 µg/mL (≈ 4.71 µM) | –
4 | C[C@H]1COc2c(N3CC(N)C(C(F)F)C3)c(F)cc3c(=O)c(C(=O)O)cn1c23 (single isomer, unassigned) [Example 3] | – | – | – | – | – | – | – | – | – | 264 to 268 °C | – | – | – | – | – | MIC ([1]; listed as Ex. 3): 0.012 microgram/ml; MIC ([2]; listed as Ex. 3): 0.1 microgram/ml; MIC ([3]; listed as Ex. 3): 0.025 microgram/ml; MIC [4, 29]: 0.39 microgram/ml; MIC [5, 29]: 0.1 microgram/ml; MIC ([6]; listed as Ex. 3): 0.05 microgram/ml; MIC ([7]; S. aureus, listed as Ex. 3): 3.13 microgram/ml; MIC ([8]; S. epidermidis, listed as Ex. 3): 0.2 microgram/ml; MIC ([9]; S. flexneri, listed as Ex. 3): 0.025 microgram/ml; MIC ([10]; S. maltophilia, listed as Ex. 3): 0.39 microgram/ml; MIC ([11]; Ser. marcescens, listed as Ex. 3): 0.1 microgram/ml; MIC ([12]; Str. faecalis, listed as Ex. 3): 0.78 microgram/ml; MIC ([13]; Str. pneumoniae, listed as Ex. 3): 0.39 microgram/ml; MIC ([14]; Str. pyogenes, listed as Ex. 3): 0.78 microgram/ml
5 | C[C@H]1COc2c(N3CCN(C)CC3)c(F)cc3c(=O)c(C(=O)O)cn1c23 [LVFX, levofloxacin, reference compound] | 0.1 µg/mL (≈ 0.277 µM) | 0.2 µg/mL (≈ 0.553 µM) | 0.1 µg/mL (≈ 0.277 µM) | 0.2 µg/mL (≈ 0.553 µM) | 0.39 µg/mL (≈ 1.08 µM) | 0.39 µg/mL (≈ 1.08 µM) | 0.1 µg/mL (≈ 0.277 µM) | 0.78 µg/mL (≈ 2.16 µM) | 0.78 µg/mL (≈ 2.16 µM) | – | 0.12 µg/mL (≈ 0.332 µM) | 0.012 µg/mL (≈ 0.0332 µM) | > 6.25 µg/mL | 0.025 µg/mL (≈ 0.0692 µM) | 0.2 µg/mL (≈ 0.553 µM) | –
6 | C[C@H]1COc2c(N3C[C@H](CF)[C@H](N)C3)c(F)cc3c(=O)c(C(=O)O)cn1c23 [Example 1, 10-[3-(S)-Amino-4-(S)-fluoromethylpyrrolidin-1-yl]-9-fluoro-2,3-dihydro-3-(S)-methyl-7-oxo-7H-pyridol-[1,2,3-de][1,4]benzoxazine-6-carboxylic acid] | 0.05 µg/mL (≈ 0.132 µM) | 0.1 µg/mL (≈ 0.264 µM) | 0.025 µg/mL (≈ 0.0659 µM) | 0.025 µg/mL (≈ 0.0659 µM) | 0.1 µg/mL (≈ 0.264 µM) | 0.39 µg/mL (≈ 1.03 µM) | 0.05 µg/mL (≈ 0.132 µM) | 0.2 µg/mL (≈ 0.527 µM) | 0.1 µg/mL (≈ 0.264 µM) | – | 0.006 µg/mL (≈ 0.0158 µM) | 0.012 µg/mL (≈ 0.0316 µM) | 1.56 µg/mL (≈ 4.11 µM) | 0.012 µg/mL (≈ 0.0316 µM) | 0.2 µg/mL (≈ 0.527 µM) | Number of deaths/total number [15]: 0/5
